US20230219979A1, “PYRAZOLO[1,5-a]PYRIDINE COMPOUND, PREPARATION METHOD THEREFOR AND USE THEREOF” (SHENZHEN ZHONGGE BIOLOGICAL TECHNOLOGY CO., LTD., priority 2019, published 2023)
pIC50: −log10 of the molar value. Read-outs that look alike come from different tables or passages of the source.

Experiments:
Wild-type RET kinase = Wild-type RET kinase (Homo sapiens, UniProt P07949); assay: HTRF method for testing the inhibitory activity of compounds against RET; format: biochemical
Ba/F3-KIF5B-RET cell = molecular target: T1, Ba/F3-KIF5B-RET cell (Homo sapiens, UniProt P07949); assay: CellTiter-Glo luminescence assay, inhibitory activity against Ba/F3-KIF5B-RET cell; format: cell-based
T1 construct: fused on or other part: P33176 (Kinesin-1 heavy chain)
Description: (C) In Vitro Screening Experiment - CellTiter-Glo Luminescence Assay for Testing The inhibitory activity of compounds against Ba/F3-KIF5B-RET cell
• 1. The mammalian cell expression vector containing human KIF5B-RET cDNA was introduced into Ba/F3 cells using the Neon® transfection system method, and the surviving clones screened by puromycin were subjected to cell growth inhibitory function experiments and Western blotting to verify cell lines with stable and high expression of RET. • 2. Cells were cultured in RPMI 1640 medium containing 10% fetal bovine serum, 1% penicillin-streptomycin, and 2 µg/mL puromycin, and then placed in a 37° C., 5% carbon dioxide cell incubator. • 3. The test compound (5 mM stock) was diluted 2.5 folds to […] with 100% dimethyl sulfoxide; and the compound was diluted into 10 concentrations at an equal ratio of 1:3 in a 384-well dilution plate. • 4. 0.2 µL of the serially diluted compound was added to a 384-well cell culture plate (Corning, 3570) using an Echo 550 pipetting system, 2 replicate wells for each concentration, and the final concentration of dimethyl sulfoxide was 0.5% (v/v). The gradient concentrations of the test compound were 5000, 1666.7, 555.5, 185.18, 61.72, 20.57, 6.858, 2.286, 0.764, 0.254 nM. • 5. 40 µL of Ba/F3-KIF5B-RET cell suspension containing 800 cells was added to each well, and incubated for 72 h in a 5% CO2 cell incubator. • 6. 20 µL of Cell Titer-Glo reagent was added to each well of the cell culture plate, and the culture system was then shaken and mixed thoroughly for 2 min to lyse the cells, the cells were then incubated at room temperature for 30 min, and the […] signal values were then read with an Envision 2104 microplate reader. • 7. By fitting the data with XLFit 5.0 based on the parameters formula, the IC50 value was calculated as: • [formula]

[1] = HTRF, read-out: Wild-type RET kinase
[2] = 72 h, read-out: Ba/F3-KIF5B-RET cell activity
[3] = read-out: Ba/F3-KIF5B-RET cell activity, 72 h

T1 sequence (P07949 whole entry, stated change not applied, the tested form may be a part): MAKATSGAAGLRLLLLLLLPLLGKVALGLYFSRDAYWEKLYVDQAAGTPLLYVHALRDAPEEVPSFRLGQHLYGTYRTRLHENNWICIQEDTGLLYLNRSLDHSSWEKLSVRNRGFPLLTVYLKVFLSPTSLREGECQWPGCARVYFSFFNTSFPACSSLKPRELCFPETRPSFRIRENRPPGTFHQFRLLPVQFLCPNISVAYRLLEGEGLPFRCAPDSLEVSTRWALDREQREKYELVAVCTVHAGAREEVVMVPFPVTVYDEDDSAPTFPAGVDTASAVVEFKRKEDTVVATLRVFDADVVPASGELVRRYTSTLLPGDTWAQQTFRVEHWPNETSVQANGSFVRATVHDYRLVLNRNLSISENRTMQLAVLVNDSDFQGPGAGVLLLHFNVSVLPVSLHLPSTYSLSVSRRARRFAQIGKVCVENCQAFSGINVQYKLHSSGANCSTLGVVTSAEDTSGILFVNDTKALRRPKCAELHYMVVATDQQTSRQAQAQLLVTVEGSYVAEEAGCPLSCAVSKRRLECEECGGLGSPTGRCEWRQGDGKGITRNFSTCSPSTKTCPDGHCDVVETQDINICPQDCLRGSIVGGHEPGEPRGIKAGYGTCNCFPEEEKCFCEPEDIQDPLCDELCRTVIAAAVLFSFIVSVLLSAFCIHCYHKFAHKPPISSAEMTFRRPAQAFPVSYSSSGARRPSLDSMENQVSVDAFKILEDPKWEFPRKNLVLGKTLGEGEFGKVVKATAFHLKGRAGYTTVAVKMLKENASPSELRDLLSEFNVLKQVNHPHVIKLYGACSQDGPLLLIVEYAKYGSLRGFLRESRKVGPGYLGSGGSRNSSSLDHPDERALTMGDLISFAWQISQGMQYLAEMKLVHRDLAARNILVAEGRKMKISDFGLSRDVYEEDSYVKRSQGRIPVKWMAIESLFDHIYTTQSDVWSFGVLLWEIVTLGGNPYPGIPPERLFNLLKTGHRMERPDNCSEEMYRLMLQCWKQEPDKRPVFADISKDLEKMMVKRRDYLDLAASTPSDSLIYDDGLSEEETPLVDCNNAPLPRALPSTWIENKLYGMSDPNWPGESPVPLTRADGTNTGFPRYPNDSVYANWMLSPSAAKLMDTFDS
Sequence of Wild-type RET kinase (P07949 29-1114): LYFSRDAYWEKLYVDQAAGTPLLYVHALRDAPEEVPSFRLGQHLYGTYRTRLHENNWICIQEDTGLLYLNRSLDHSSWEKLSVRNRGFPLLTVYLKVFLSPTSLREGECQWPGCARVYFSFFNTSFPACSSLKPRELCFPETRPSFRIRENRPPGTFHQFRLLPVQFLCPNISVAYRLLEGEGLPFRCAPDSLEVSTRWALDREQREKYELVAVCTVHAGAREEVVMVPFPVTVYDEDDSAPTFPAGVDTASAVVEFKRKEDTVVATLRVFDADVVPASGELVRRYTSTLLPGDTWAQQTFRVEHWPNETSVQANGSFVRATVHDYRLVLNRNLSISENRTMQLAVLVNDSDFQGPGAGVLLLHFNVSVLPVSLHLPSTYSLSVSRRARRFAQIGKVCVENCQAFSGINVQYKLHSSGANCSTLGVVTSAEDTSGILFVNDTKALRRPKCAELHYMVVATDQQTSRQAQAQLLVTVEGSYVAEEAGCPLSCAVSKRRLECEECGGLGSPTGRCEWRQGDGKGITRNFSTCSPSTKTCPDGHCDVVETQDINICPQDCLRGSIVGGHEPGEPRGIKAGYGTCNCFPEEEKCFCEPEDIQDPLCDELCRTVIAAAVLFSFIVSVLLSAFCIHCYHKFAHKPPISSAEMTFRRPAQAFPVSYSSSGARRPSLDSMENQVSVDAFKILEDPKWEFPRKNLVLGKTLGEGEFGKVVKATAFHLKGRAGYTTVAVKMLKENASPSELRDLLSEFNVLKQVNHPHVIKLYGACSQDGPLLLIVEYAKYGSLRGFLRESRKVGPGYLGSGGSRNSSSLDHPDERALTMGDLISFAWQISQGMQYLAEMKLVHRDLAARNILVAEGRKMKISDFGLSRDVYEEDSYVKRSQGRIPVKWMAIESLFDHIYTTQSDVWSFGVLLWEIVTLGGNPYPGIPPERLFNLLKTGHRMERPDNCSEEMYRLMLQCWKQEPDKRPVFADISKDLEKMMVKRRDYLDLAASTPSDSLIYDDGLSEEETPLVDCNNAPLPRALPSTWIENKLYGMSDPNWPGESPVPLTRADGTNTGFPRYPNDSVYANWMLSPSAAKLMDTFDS

How did the pIC50 (Wild-type RET kinase; [1]) turn out when `COc1ccc(CN2C3CC2CN(c2cnc(-c4cc(OCCN5CCC6(COC6)C5)cn5ncc(C#N)c45)cn2)C3)cn1` [Compound 20, 6-(2-(2-oxa-6-azaspiro[3.4]oct-6-yl)ethoxy)-4-(5-(6-((6-methoxypyridin-3-yl)methyl)-3,6-diazabicyclo[3.1.1]heptan-3-yl)pyrazin-2-yl)pyrazolo[1,5-a]pyridine-3-carbonitrile] was run?
The pIC50 was 8.58.

And the GI50 (Ba/F3-KIF5B-RET cell; [2])?
The GI50 was 19.1 nM.

How did the pIC50 (Wild-type RET kinase; [1]) turn out when `COc1ccc(CN2C3CC2CN(c2cnc(-c4cc(OCCN5CCC6(CCNC6)CC5)cn5ncc(C#N)c45)cn2)C3)cn1` [Compound 21] was run?
Its pIC50 is 9.14.

What about the GI50 (Ba/F3-KIF5B-RET cell; [2]) of the same compound?
The GI50 was 192 nM.

With `COc1ccc(CN2C3CC2CN(c2cnc(-c4cc(OCCN5CC6CC(C5)N6)cn5ncc(C#N)c45)cn2)C3)cn1` [Compound 22, 6-(2-(3,6-diazabicyclo[3.1.1]heptan-3-yl)ethoxy)-4-(5-(6-((6-methoxypyridine-3-yl)methyl)-3,6-diazabicyclo[3.1.1]heptan-3-yl)pyrazin-2-yl)pyrazolo[1,5-a]pyridine-3-carbonitrile] as the compound, how does the pIC50 (Wild-type RET kinase; [1]) read?
Its pIC50 is 8.91.

What about the GI50 (Ba/F3-KIF5B-RET cell; [2]) of the same compound?
The GI50 was 151 nM.

With `COc1ccc(CN2C3CC2CN(c2cnc(-c4cc(OCCN5CCCC56CNC6)cn5ncc(C#N)c45)cn2)C3)cn1` [Compound 23, 6-(2-(2,5-diazaspiro[3.4]octan-5-yl)ethoxy)-4-(5-(6-((6-methoxypyridin-3-yl)methyl)-3,6-diazabicyclo[3.1.1]heptan-3-yl)pyrazin-2-yl)pyrazolo[1,5-a]pyridine-3-carbonitrile] as the compound, how does the pIC50 (Wild-type RET kinase; [1]) read?
Its pIC50 is 8.87.

What about the GI50 (Ba/F3-KIF5B-RET cell; [2]) of the same compound?
Its GI50 is 1130 nM.

With `COc1ccc(CN2C3CC2CN(c2cnc(-c4cc(OCCN5CCC6(CCCCC6)CC5)cn5ncc(C#N)c45)cn2)C3)cn1` [Compound 24, 6-(2-(3-azaspiro[5.5]undecane-3-yl)ethoxy)-4-(5-(6-((6-methoxypyridin-3-yl)methyl)-3,6diazabicyclo[3.1.1]heptan-3-yl)pyrazin-2-yl)pyrazolo[1,5-a]pyridine-3-carbonitrile] as the compound, how does the pIC50 (Wild-type RET kinase; [1]) read?
Its pIC50 is 8.66.

And the GI50 (Ba/F3-KIF5B-RET cell; [2])?
The GI50 was 21.3 nM.

`COc1ccc(CN2C3CC2CN(c2cnc(-c4cc(OCCN5CCC6(CCCO6)CC5)cn5ncc(C#N)c45)cn2)C3)cn1` [Compound 25, 6-(2-(1-oxa-8-azaspiro[4.5]dec-8-yl)ethoxy)-4-(5-(6-((6-methoxypyridin-3-yl)methyl)-3,6-diazabicyclo[3.1.1]heptan-3-yl)pyrazin-2-yl)pyrazolo[1,5-a]pyridine-3-carbonitrile] was tested. Which pIC50 (Wild-type RET kinase; [1]) did it give?
Its pIC50 is 8.54.

What about the GI50 (Ba/F3-KIF5B-RET cell; [2]) of the same compound?
The GI50 was 27.7 nM.

With `COc1ccc(CN2C3CC2CN(c2cnc(-c4cc(OC(=O)N5CCN(C)CC5)cn5ncc(C#N)c45)cn2)C3)cn1` [Compound 26, 3-cyano-4-(5-(6-((6-methoxypyridin-3-yl)methyl)-3,6-diazabicyclo[3.1.1]heptan-3-yl)pyrazin)pyrazolo[1,5-a]pyridin-6-yl 4-methylpiperazine-1-carboxylate] as the compound, how does the pIC50 (Wild-type RET kinase) read?
Its pIC50 is 7.90.

What about the GI50 (Ba/F3-KIF5B-RET cell; [3]) of the same compound?
The GI50 was 64.2 nM.

With `COc1ccc(CN2C3CC2CN(c2cnc(-c4cc(OC(=O)N5CCOCC5)cn5ncc(C#N)c45)cn2)C3)cn1` [Compound 27, 3-cyano-4-(5-(6-((6-methoxypyridin-3-yl)methyl)-3,6-diazabicyclo[3.1.1]heptan-3-yl)pyrazin-2-yl]pyrazolo[1,5-a]pyridin-6-ylmorpholine-4-carboxylate] as the compound, how does the pIC50 (Wild-type RET kinase) read?
The pIC50 was 7.81.

And the GI50 (Ba/F3-KIF5B-RET cell; [3])?
The GI50 was 51.7 nM.

What does the source list for `COc1ccc(CN2C3CC2CN(c2cnc(-c4cc(NCc5ccccn5)cn5ncc(C#N)c45)cn2)C3)cn1` [Compound 28, 4-(5-(6-((6-methoxypyridin-3-yl)methyl)-3,6-diazabicyclo[3.1.1]heptan-3-yl)pyrazin-2-yl)-6-((pyridin-2-ylmethyl)amino)pyrazolo[1,5-a]pyridine-3-carbonitrile]?
pIC50 (Wild-type RET kinase; [1]): 8.89; GI50 (Ba/F3-KIF5B-RET cell; [2]): 12.6 nM

Which results are given for `COc1ccc(CN2C3CC2CN(c2cnc(-c4cc(OCCN5CCC6(CC5)COC6)cn5ncc(C#N)c45)cn2)C3)cn1` [Compound 30, 6-(2-(2-oxa-7-azaspiro[3.5]non-7-yl)ethoxy)-4-(5-(6-((6-methoxypyridin-3-yl)methyl)-3,6-diazabicyclo[3.1.1]heptan-3-yl)pyrazin-2-yl)pyrazolo[1,5-a]pyridine-3-carbonitrile]?
pIC50 (Wild-type RET kinase; [1]): 8.40; GI50 (Ba/F3-KIF5B-RET cell; [2]): 63.4 nM
